{
  "source": "patent US9821060B2",
  "about": "“Heat-sensitive nanoparticle system” (FONDAZIONE ISTITUTO ITALIANO DI TECNOLOGIA, priority 2013, dated 2017)",
  "origin": "cited, not measured here",
  "conditions": "in water",
  "data": [
    {"smiles": "CC(C)(N=NC(C)(C)C(=O)NCCC(=O)O)C(=O)NCCC(=O)O.O", "note": "[VA057, 2,2′Azobis-[N-(2-carboxyethyl)-2-methylpropionamide]hydrate]", "values": [
      {"measurement": "half-life temperature at 10 hours", "result": 57, "unit": "°C"}
    ]}
  ]
}
